Measured values published in patent publication US20260364080A1, “PYRAZOLO-PYRIMIDINONE COMPOUNDS FOR USE IN METHODS OF INHIBITING WEE1 A KINASE” (Acrivon Therapeutics, Inc., priority 2023, published 2026).

Assays:
[1] = target: T1, Myt1 kinase (CDK1 Thr14 phosphorylation in ACHN renal cell carcinoma cells) (Homo sapiens, UniProt Q99640); test: AlphaLISA assay, Myt1 kinase target engagement (phospho-CDK1 Thr14) in ACHN cells; format: cell-based; conditions: ACHN cells (marked *); 4 h treatment
T1 construct: pCDK1 Thr14 AlphaLISA read-out
T1 sequence (Q99640 1-499): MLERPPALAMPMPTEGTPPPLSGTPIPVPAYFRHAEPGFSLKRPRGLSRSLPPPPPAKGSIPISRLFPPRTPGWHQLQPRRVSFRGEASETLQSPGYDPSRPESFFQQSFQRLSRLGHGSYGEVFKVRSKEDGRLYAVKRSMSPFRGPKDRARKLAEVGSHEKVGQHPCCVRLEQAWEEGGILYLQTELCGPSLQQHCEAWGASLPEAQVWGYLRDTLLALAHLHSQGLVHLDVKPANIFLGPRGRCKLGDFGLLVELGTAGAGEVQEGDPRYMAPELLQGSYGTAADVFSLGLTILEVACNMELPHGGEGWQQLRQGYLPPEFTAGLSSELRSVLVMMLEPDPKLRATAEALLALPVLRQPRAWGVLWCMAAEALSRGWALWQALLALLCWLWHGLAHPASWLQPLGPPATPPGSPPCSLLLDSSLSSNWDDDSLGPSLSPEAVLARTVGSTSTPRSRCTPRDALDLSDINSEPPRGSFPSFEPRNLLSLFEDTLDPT
Description: Each of an ACHN renal cell carcinoma cell line (ATCC) and a DAOY medulloblastoma cell line, and an A427 lung cancer line were cultured in Minimum Essential Medium Eagle supplemented with 10% fetal calf serum (Sigma), 1% Penicillin-Streptomycin and 10 mM HEPES buffer (HyClone). Cell cultures were kept in a humidified incubator at 37 °C and 5% CO2. Cells were routinely tested for Mycoplasma contamination.
For target engagement assessment of Myt1 kinase inhibition, quantification of Cdk1 phosphorylated on threonine 14 was detected using the AlphaLISA® SureFire® Ultra™ Human Phospho-CDK1 (Thr14) assay (Perkin Elmer). DAOY or ACHN cells were seeded into tissue culture treated 96-well plates (VWR) to a density of 10,000 or 20,000 cells per well respectively. 24 h post seeding cells were treated for 4 h with compounds at concentrations ranging from 7 to 5000 nM. Cells were washed with PBS and lysed in 50 μl AlphaLISA lysis buffer before freezing at −80 C. Ten ul of the lysate was transferred to 384 well plates and incubated with AlphaLISA donor and acceptor beads according to the manufacturer's instructions. Dose response curves and EC50 values were calculated and visualized using GraphPad Prism version 9. Target engagement for Myt1 kinase can also be measured using the same AlphaLISA assay in OVCAR3 cells, an ovarian cancer cell line. NIH:OVCAR-3 (OVCAR3) cells are cultured in RPMI-1640 medium supplemented with 0.01 mg/ml insulin, 20% FBS, 1% Penicillin-Streptomycin and 10 mM HEPES buffer. 14,000 cells per well are seeded into 96 well tissue culture plates in full medium. Twenty-four hours post seeding, cells are treated with compound for 4 hours at concentrations ranging from 0.017 nM to 1000 nM.

ACHN cells = test: Cell Titer Glo viability assay, ACHN cells; format: cell-based; conditions: Homo sapiens, 144 h, absolute EC50
Outline: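 Cells grown in MEM with 10% FCS were seeded at 500 (A427), 400 (ACHN) or 250 (DAOY) per well and treated the next day with compound at 17 to 10 000 nM. Viability relative to untreated control was read at 144 h by CellTiter-Glo 2.0.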

[2] = target: T2, Wee1A kinase (CDK1 Tyr15 phosphorylation in ACHN renal cell carcinoma cells) (Homo sapiens, UniProt P30291); test: High-content imaging of pCdk1 Y15, Wee1A kinase target engagement in ACHN cells; format: cell-based; conditions: 4 h treatment, nuclear positivity for pCdk1 Y15 vs DMSO control, read-out: CDK1 Tyr15 Phosphorylation EC50
T2 construct: pCDK1 Tyr15 immunofluorescence read-out
T2 sequence (P30291 whole entry): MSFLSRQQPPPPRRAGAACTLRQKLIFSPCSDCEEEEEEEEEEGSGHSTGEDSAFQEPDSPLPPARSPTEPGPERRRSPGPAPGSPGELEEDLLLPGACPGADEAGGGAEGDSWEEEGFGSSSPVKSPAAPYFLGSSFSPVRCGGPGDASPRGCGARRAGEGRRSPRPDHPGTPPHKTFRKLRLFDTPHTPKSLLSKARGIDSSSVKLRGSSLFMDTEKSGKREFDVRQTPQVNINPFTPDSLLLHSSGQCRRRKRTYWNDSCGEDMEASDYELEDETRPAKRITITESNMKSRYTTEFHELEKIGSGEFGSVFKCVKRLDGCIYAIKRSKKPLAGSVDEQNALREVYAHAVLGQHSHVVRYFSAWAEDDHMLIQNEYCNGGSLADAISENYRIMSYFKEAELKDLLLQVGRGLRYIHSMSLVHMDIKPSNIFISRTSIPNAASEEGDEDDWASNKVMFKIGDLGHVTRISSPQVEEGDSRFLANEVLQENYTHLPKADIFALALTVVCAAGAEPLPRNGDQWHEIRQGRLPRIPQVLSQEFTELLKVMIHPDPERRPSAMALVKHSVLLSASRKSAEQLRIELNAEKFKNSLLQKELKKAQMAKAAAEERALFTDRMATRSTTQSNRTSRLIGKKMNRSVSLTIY
Outline: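 ACHN cells exposed to compound for 4 h over 7–5,000 nM or 0.3–200 nM, then fixed and immunostained for pCDK1 Y15 with DAPI nuclear counterstain. The percentage of pCdk1 Y15 nucleus-positive cells relative to DMSO control was imaged per well; EC50 from dose-response curves.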

[3] = target: T3, recombinant human Wee1A kinase (Homo sapiens, UniProt P30291); test: Wee1A kinase binding assay (LanthaScreen Eu time-resolved FRET); conditions: 30 nM tracer 178, 5 nM Wee1A kinase, 2 nM Eu-labeled antibody; 60 minutes at room temperature; read-out: Wee1A kinase Binding IC50
T3 construct: full length Wee1 kinase was expressed by baculovirus in insect cells; purchased Invitrogen PV3817; host or cells: insect cells (baculovirus)
T3 sequence (P30291 whole entry): as above
Outline: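 Full-length, baculovirus-expressed GST-tagged Wee1A (5 nM) was mixed with 2 nM Eu-anti-GST antibody, 30 nM kinase tracer 178 and compound (1% DMSO). Buffer was 50 mM HEPES pH 7.5, 10 mM MgCl2, 1 mM EGTA, 0.01% Brij-35, incubated 60 min at room temperature. TR-FRET 665/615 nm emission ratios from duplicates were curve-fitted.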

[4] = target: T4, Myt1 kinase (recombinant PMYT-1) (Homo sapiens, UniProt Q99640); test: Myt1 kinase binding assay (LanthaScreen Eu Kinase Binding Assay); conditions: 3 nM tracer 178, 2.5 nM PMYT-1, 1 nM Eu-labeled antibody; read-out: Myt1 kinase Binding IC50
T4 construct: full length PMYT-1 was expressed by baculovirus in insect cells; purchased Invitrogen A30984; host or cells: insect cells (baculovirus)
T4 sequence (Q99640 1-499): T1 sequence (Q99640 1-499)
Outline: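 The binding affinity of compounds for Myt1 kinase was measured with a LanthaScreen Europium (Eu) Kinase Binding Assay, a time-resolved FRET format in which test compounds compete against a labeled kinase tracer, and the results were expressed as IC50 values describing compound binding to Myt1.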

| EC50 [1] [nM] | EC50 (ACHN cells) [nM] | EC50 [2] [nM] | IC50 [3] [nM] | IC50 [4] [nM] | Compound |
| --- | --- | --- | --- | --- | --- |
| 200 to 500 | ≤ 100 | < 100 | < 10 | 20 to 100 | C=CCn1c(=O)c2cnc(Nc3ccc4c(cnn4C)c3)nc2n1-c1ccnc(OC2CCN(C)CC2)n1 [Compound 279, 2-allyl-6-((1-methyl-1H-indazol-5-yl)amino)-1-(2-((1-methylpiperidin-4-yl)oxy)pyrimidin-4-yl)-1,2-dihydro-3H-pyrazolo[3,4-d]pyrimidin-3-one] |
| 500 to 1000 | ≤ 100 | < 100 | < 10 | 20 to 100 | CN1CCC(Oc2cccc(-n3c4nc(Nc5ccc6c(ccn6C)c5)ncc4c(=O)n3C)n2)CC1 [Compound 360, 2-methyl-6-((1-methyl-1H-indol-5-yl)amino)-1-(6-((1-methylpiperidin-4-yl)oxy)pyridin-2-yl)-1,2-dihydro-3H-pyrazolo[3,4-d]pyrimidin-3-one] |
| < 200 | ≤ 100 | < 100 | < 10 | < 20 | C=CCn1c(=O)c2cnc(Nc3ccc4nn(CC)cc4c3)nc2n1-c1cccc(OC2CCN(C)CC2)n1 [Compound 282, 2-allyl-6-((2-ethyl-2H-indazol-5-yl)amino)-1-(6-((1-methylpiperidin-4-yl)oxy)pyridin-2-yl)-1,2-dihydro-3H-pyrazolo[3,4-d]pyrimidin-3-one] |
| < 200 | ≤ 100 | < 100 | < 10 | 20 to 100 | C=CCn1c(=O)c2cnc(Nc3ccc4c(ccn4C(C)=O)c3)nc2n1-c1cccc(OC2CCN(C)CC2)n1 [Compound 392, 6-((1-acetyl-1H-indol-5-yl)amino)-2-allyl-1-(6-((1-methylpiperidin-4-yl)oxy)pyridin-2-yl)-1,2-dihydro-3H-pyrazolo[3,4-d]pyrimidin-3-one] |
| > 1000 | ≤ 100 | < 100 | < 10 | 20 to 100 | C=CCn1c(=O)c2cnc(Nc3ccc4c(ccn4C(C)=O)c3)nc2n1-c1cccc(OC2CCNCC2)n1 [Compound 384] |
| < 200 | ≤ 100 | < 100 | < 10 | 20 to 100 | [2H]C([2H])([2H])N1CCC(Oc2cccc(-n3c4nc(Nc5ccc6c(cnn6C)c5)ncc4c(=O)n3CC=C)n2)CC1 [Compound 281, 2-allyl-6-((1-methyl-1H-indazol-5-yl)amino)-1-(6-((1-(methyl-d3)piperidin-4-yl)oxy)pyridin-2-yl)-1,2-dihydro-3H-pyrazolo[3,4-d]pyrimidin-3-one] |
| < 200 | ≤ 100 | < 100 | < 10 | < 20 | C=CCn1c(=O)c2cnc(Nc3ccc4c(cnn4C4CC4)c3)nc2n1-c1cccc(OC2CCN(C)CC2)n1 [Compound 386, 2-allyl-6-((1-cyclopropyl-1H-indazol-5-yl)amino)-1-(6-((1-methylpiperidin-4-yl)oxy)pyridin-2-yl)-1,2-dihydro-3H-pyrazolo[3,4-d]pyrimidin-3-one] |
| < 200 | – | < 100 | < 10 | 20 to 100 | C=CCn1c(=O)c2cnc(Nc3ccc4cnn(C)c4c3)nc2n1-c1cccc(OC2CCN(C)CC2)n1 [Compound 389, 2-allyl-6-((1-methyl-1H-indazol-6-yl)amino)-1-(6-((1-methylpiperidin-4-yl)oxy)pyridin-2-yl)-1,2-dihydro-3H-pyrazolo[3,4-d]pyrimidin-3-one] |
| 200 to 500 | – | < 100 | < 10 | 20 to 100 | C=CCn1c(=O)c2cnc(Nc3ccc4ccncc4c3)nc2n1-c1cccc(OC2CCN(C)CC2)n1 [Compound 326, 2-allyl-6-(7-isoquinolylamino)-1-[6-(1-methyl-4-piperidyloxy)-2-pyridyl]-1,2-dihydro-3H-1,2,5,7-tetraazainden-3-one] |
| < 200 | ≤ 100 | < 100 | – | < 20 | [2H]C([2H])([2H])N1CCC(Oc2cccc(-n3c4nc(Nc5ccc6c(cnn6C(C)C)c5)ncc4c(=O)n3CC=C)n2)CC1 [Compound 354, 2-allyl-6-(1-isopropyl-1H-indazol-5-ylamino)-1-(6-{1-[(^2H3)methyl]-4-piperidyloxy}-2-pyridyl)-1,2-dihydro-3H-1,2,5,7-tetraazainden-3-one] |
| < 200 | – | < 100 | < 10 | < 20 | C=CCn1c(=O)c2cnc(Nc3ccc(OCCF)nc3)nc2n1-c1cccc(OC2CCN(C)CC2)n1 [Compound 399, 2-allyl-6-((6-(2-fluoroethoxy)pyridin-3-yl)amino)-1-(6-((1-methylpiperidin-4-yl)oxy)pyridin-2-yl)-1,2-dihydro-3H-pyrazolo[3,4-d]pyrimidin-3-one] |
| 200 to 500 | ≤ 100 | < 100 | < 10 | – | C=CCn1c(=O)c2cnc(Nc3ccc4c(cnn4C)c3)nc2n1-c1cccc(OC2CCCN(C)CC2)n1 (centres unmarked) [Compound 361] |
| 200 to 500 | – | < 100 | < 10 | < 20 | C=CCn1c(=O)c2cnc(Nc3ccc4[nH]nc(C)c4c3)nc2n1-c1cccc(OC2CCN(C)CC2)n1 [Compound 355, 2-allyl-6-((3-methyl-1H-indazol-5-yl)amino)-1-(6-((1-methylpiperidin-4-yl)oxy)pyridin-2-yl)-1,2-dihydro-3H-pyrazolo[3,4-d]pyrimidin-3-one] |
| 500 to 1000 | – | < 100 | < 10 | 20 to 100 | C=CCn1c(=O)c2cnc(Nc3ccc4c(cnn4C)c3)nc2n1-c1cccc(OC2CCCN(C)CC2)n1 (single isomer, unassigned) [Compound 374] |
| 200 to 500 | – | < 100 | < 10 | < 20 | C=CCn1c(=O)c2cnc(Nc3ccc(Br)cc3)nc2n1-c1cccc(OC2CCN(C)CC2)n1 [Compound 370, 2-allyl-6-(p-bromophenylamino)-1-[6-(1-methyl-4-piperidyloxy)-2-pyridyl]-1,2-dihydro-3H-1,2,5,7-tetraazainden-3-one] |
| < 200 | – | < 100 | < 10 | < 20 | C=CCn1c(=O)c2cnc(Nc3ccc4c(cnn4C(C)C)c3)nc2n1-c1ccnc(OC2CCN(C)CC2)n1 [Compound 401, 2-allyl-6-((1-isopropyl-1H-indazol-5-yl)amino)-1-(2-((1-methylpiperidin-4-yl)oxy)pyrimidin-4-yl)-1,2-dihydro-3H-pyrazolo[3,4-d]pyrimidin-3-one] |
